Structures are written as SMILES.

Among the data in patent US12637468B2, “Substituted [1,2,4]triazolo[4,3-b]pyridazines as GABAA receptor modulators” (SHANGHAI SIMR BIOTECHNOLOGY CO., LTD., priority 2019, dated 2026) are inhibition values, retold here.

For the experiment, the target named is T1, α5-GABAA receptor (Homo sapiens, UniProt P18507+P31644).
T1 construct: expressed in transfected cells; host or cells: HEK293, monoclonal stably transfected line
The experiment can be described thus: Cell-level screening: whole cell patch clamp, inverse agonist efficacy on α5-GABAA receptor expressed in HEK293. Format: cell-based. As to conditions: drug 100 nM, GABA 0.05 μM, HEK293 expressing α5, β3 and γ2 subunits, clamped at −60 mV; read-out: Compound inverse agonist efficacy %. On the procedure:
The inventors used electrophysiological methods to determine the inverse agonist efficacy of the drugs to be tested on the α5-GABAA receptor. The detailed methods are as follows:
Different subunits of GABAA receptors were expressed in human […] cell line 293 (HEK293) cell line. The cells were cultured in a culture medium and used as a cell model for screening pain inhibiting drugs. The α, β and γ subunits are necessary to form complete functional GABAA receptors. In this embodiment, the inventors had established the following cell model: α5 subunit (see GenBank Accession No. NM_000810.3 for protein sequences), β3 subunit (see GenBank Accession No. NM_000814.5 for protein sequences) and γ2 subunit (see GenBank Accession No. NM_000816.3 for protein sequences) were expressed in HEK293 cell line at the same time, followed by screening the monoclonal cell line. This cell line contained α5-GABAA receptor and had complete GABAA receptor function.
The monoclonal stably transfected HEK-293 cells expressing α5-GABAA receptor were cultured in 10 cm culture dishes and passaged when the cells grew to 80%-90%. During passaging, the culture medium was aspirated first, then 3 mL of DPBS phosphate buffer salt (Gibco™) was added to the culture dishes, and the culture dishes were shaken slightly, and DPBS was aspirated. 1 mL of trypsin (TrypLE Express, Gibco™) was added thereto, and the cells were digested at 37° C. for 1-2 minutes. Then 3 mL of complete medium (DMEM+10% FBS (Gibco™)) was added and the cells at the bottom of the culture dishes were dispersed. The cell suspension were transferred to a 15 mL centrifugal tube (Corning) and then centrifuged at 200 g for 3 minutes. The supernatant was discarded, 4 mL of complete medium was added, and the cells were gently blown and resuspended for use. If cell passaging was performed, the cell suspension was diluted at a ratio of 1:5 or 1:10. If cells for electrophysiology use were prepared, the cell suspension was diluted in a ratio of 1:12, then added into a 24-well dish (Corning™) in which glass slides were placed and pretreated with Poly-D-Lysine, and the cells were tested after being attached to the walls. The culture time of cells for electrophysiology use was no more than 48 hours.
Drug concentration setting: the final drug concentration used in drug screening was 100 nM, and the GABA concentration range was 0.05 μM. The final drug concentrations used in the dose-inversal agonistic efficiency (%) test were 0.3 nM, 3 nM, 10 nM, 30 nM, 100 nM and 300 nM. The whole cell patch clamp technique was used in electrophysiological experiments, which could refer to the literature (I. Lecker, Y. Yin, D. S. Wang and B. A. Orser, (2013) Potentiation of GABAA receptor activity by volatile anaesthetics is reduced by α5-GABAA receptor-preferring inverse agonists, British Journal of Anaesthesia 110 (S1): i73-i81). The components of extracellular solution (ECS) for electrophysiology use were as follows: 150 mM NaCl, 5 mM KCl, 2.5 mM CaCl2), 1 mM MgCl2, 10 mM HEPES and 10 mM glucose (pH 7.4); electrode internal solutions for electrophysiology use were as follows: 140 mM CsCl, 11 mM EGTA, 10 mM HEPES, 2 mM CaCl2), 1 mM MgCl2, 4 mM MgATP, 2 mM TEA (pH 7.3). The signal acquisition used an EPC-10 amplifier and the PatchMaster software (HEKA). The recording electrode was drawn using borosilicate glass, and the electrode resistance was 4 to 6 MΩ. The ALA-VC3-8PP™ system was used for extracellular administration. Separate cells that grew independently was selected for recording. During recording, the cell membrane potential was clamped at −60 mV. During experiment, an extracellular solution was applied to the cells for about 20 seconds. When the baseline reached to a stable state, the extracellular solution was switched to GABA. Then the current induced by GABA could be detected. […]

T1 sequence (P31644 32-462): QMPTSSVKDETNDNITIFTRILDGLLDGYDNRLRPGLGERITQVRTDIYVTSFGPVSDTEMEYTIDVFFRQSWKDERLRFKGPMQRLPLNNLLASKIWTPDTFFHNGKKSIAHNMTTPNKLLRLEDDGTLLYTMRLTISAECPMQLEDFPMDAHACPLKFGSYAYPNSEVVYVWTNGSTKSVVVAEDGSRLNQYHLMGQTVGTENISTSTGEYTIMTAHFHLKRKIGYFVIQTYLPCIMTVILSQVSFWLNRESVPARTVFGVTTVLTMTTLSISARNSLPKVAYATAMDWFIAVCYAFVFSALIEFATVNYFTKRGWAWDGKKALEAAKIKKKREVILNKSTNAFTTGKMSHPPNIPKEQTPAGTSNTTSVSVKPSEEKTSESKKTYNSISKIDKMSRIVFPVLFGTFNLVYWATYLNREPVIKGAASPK
T1 sequence (P28472 26-473 partner): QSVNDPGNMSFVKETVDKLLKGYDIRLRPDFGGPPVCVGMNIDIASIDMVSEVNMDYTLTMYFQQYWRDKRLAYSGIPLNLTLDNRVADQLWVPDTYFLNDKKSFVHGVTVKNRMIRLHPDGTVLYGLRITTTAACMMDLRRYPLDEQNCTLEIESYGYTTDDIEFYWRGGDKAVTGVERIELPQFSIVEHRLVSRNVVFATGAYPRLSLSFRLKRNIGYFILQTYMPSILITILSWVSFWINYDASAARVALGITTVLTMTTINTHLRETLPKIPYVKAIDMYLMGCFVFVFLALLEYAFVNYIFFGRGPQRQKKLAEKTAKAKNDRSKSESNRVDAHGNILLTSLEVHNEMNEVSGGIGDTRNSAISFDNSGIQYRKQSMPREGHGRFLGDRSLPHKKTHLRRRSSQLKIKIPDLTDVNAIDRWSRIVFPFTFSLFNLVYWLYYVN
T1 sequence (P18507 40-467 isoform P18507-1 limits assumed): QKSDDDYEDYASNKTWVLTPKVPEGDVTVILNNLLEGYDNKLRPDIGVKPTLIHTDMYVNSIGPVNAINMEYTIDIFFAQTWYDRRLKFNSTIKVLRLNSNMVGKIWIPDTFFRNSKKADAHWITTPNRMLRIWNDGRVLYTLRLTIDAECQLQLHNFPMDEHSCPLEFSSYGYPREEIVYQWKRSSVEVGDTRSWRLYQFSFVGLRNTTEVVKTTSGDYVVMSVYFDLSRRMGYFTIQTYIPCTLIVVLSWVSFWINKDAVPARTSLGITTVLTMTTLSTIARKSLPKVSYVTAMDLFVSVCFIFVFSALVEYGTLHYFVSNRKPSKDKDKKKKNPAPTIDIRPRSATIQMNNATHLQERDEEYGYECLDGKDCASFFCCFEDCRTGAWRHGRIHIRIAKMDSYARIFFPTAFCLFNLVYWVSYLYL

As to `CCN1Cc2nc(COc3nn4c(-c5cc(C)on5)nnc4cc3OC)ccc2C1=O` [Embodiment 67], the inhibition at 0.1 µM worked out at 58%. The value for `COc1cc2nnc(-c3cc(C)on3)n2nc1OCc1ccc(C2CCCN2)cn1` (stereo not shown) [Embodiment 69, 3-(7-Methoxy-6-((5-(pyrrolidin-2-yl)pyridin-2-yl)methoxy)-[1,2,4]triazolo[4,3-b]pyridazin-3-yl)-5-methylisoxazole] was 50%; that for `COc1cc2nnc(-c3cc(C)on3)n2nc1OCc1cccc(C2(F)CNC2)n1` [Embodiment 70] was 31.7%; that for `COc1cc2nnc(-c3cc(C)on3)n2nc1OCc1ccc(C2(F)CNC2)cn1` [Embodiment 71] was 40.7%. The figure for `COc1nccc(COc2nn3c(-c4cc(C)on4)nnc3cc2OC)n1` [Embodiment 72] is 54.3%. The value for `COc1cc2nnc(-c3cc(C)on3)n2nc1OCc1ccc2c(cnn2C)n1` [Embodiment 73] was 34.5%; that for `COc1cc2nnc(-c3cc(C)on3)n2nc1OCc1cccn(C)c1=O` [Embodiment 74] was 40.4%; that for `CCn1cccc(COc2nn3c(-c4cc(C)on4)nnc3cc2OC)c1=O` [Embodiment 76] was 41.6%. Take `COc1cc2nnc(-c3cc(C)on3)n2nc1OCc1ccc2c(n1)CCN(CC(F)(F)F)C2` [Embodiment 77]: the inhibition at 0.1 µM is 44.8%. Consider `CCN1CCc2nc(COc3nn4c(-c5cc(C)on5)nnc4cc3OC)ccc2C1` [Embodiment 79], for which the inhibition at 0.1 µM was 47.6%.

With `COc1cc2nnc(-c3cc(C)on3)n2nc1OCc1ccc2c(n1)CCN(C(=O)C1CC1)C2` [Embodiment 81], the inhibition at 0.1 µM came out at 45.9%.

Consider `COc1cc2nnc(-c3cc(C)on3)n2nc1OCc1ccc2c(n1)CCN(CC1CC1)C2` [Embodiment 82], for which the inhibition at 0.1 µM worked out at 47.9%.

In the case of `COc1cc2nnc(-c3cc(C)on3)n2nc1OCc1ccc2c(n1)CCN(C(C)C)C2` [Embodiment 83], the inhibition at 0.1 µM came to 39.9%. The figure for `COCCCOc1cnc(COc2nn3c(-c4cc(C)on4)nnc3cc2OC)cn1` [Embodiment 86] is 41.8%; for `COc1cc2nnc(-c3cc(C)on3)n2nc1OCc1ccc2c(n1)CCN(c1ccccc1)C2` [Embodiment 87, 3-(7-Methoxy-6-((6-phenyl-5,6,7,8-tetrahydro-1,6-naphthalen-2-yl)methoxy)-[1,2,4]triazolo[4,3-b]pyridazin-3-yl)-5-methylisoxazole] it is 39.7%. Take `COc1cc2nnc(-c3cc(C)on3)n2nc1OCc1ccc2c(n1)CNC2=O` [Embodiment 89]: the inhibition at 0.1 µM is 47.2%. The figure for `COc1cc2nnc(-c3cc(C)on3)n2nc1OCc1ccc2c(n1)CCN(CCC#N)C2=O` [Embodiment 91] is 47.8%. As to `COCCn1ccc2ccc(COc3nn4c(-c5cc(C)on5)nnc4cc3OC)nc21` [Embodiment 92], the inhibition at 0.1 µM is 52.8%. As for `COCCCn1ccc2ccc(COc3nn4c(-c5cc(C)on5)nnc4cc3OC)nc21` [Embodiment 93], the inhibition at 0.1 µM is 36.5%. Take `COc1cc2nnc(-c3cc(C)on3)n2nc1OCc1ccc2ccn(C)c2n1` [Embodiment 94]: the inhibition at 0.1 µM was 32.9%. Regarding `COc1cc2nnc(-c3cc(C)on3)n2nc1OCc1ccc(C2(F)CCCNC2)cn1` (stereo not shown) [Embodiment 95], the inhibition at 0.1 µM is 48.1%.

For the compound `COc1cc2nnc(-c3cc(C)on3)n2nc1OCc1ccc(C2CCNC2)cn1` (stereo not shown) [Embodiment 96], the inhibition at 0.1 µM came to 38.8%.

As to `COc1cc2nnc(-c3cc(C)on3)n2nc1OCc1ccc2c(ccn2C)n1` [Embodiment 97], the inhibition at 0.1 µM came out at 32.6%.

`COc1cc2nnc(-c3cc(C)on3)n2nc1OCc1ccc2c(n1)CNC2` [Embodiment 98]: the inhibition at 0.1 µM came to 38%. For the compound `COc1cc2nnc(-c3cc(C)on3)n2nc1OCc1ccc2ncn(C)c2n1` [Embodiment 101], the inhibition at 0.1 µM was 32.9%. On to `COc1cc2nnc(-c3cc(C)on3)n2nc1OCc1cccc2cnnn12` [Embodiment 104], for which the inhibition at 0.1 µM was found to be 48.2%. As for `COc1cc2nnc(-c3cc(C)on3)n2nc1OCc1ccc2nccn2n1` [Embodiment 105], the inhibition at 0.1 µM was determined as 49.3%. The value for `COc1cc2nnc(-c3cc(C)on3)n2nc1OCc1ccc(OCC2CCCO2)cn1` (stereo not shown) [Embodiment 106] was 60.4%; that for `C=CC(=O)N1CCc2nc(COc3nn4c(-c5cc(C)on5)nnc4cc3OC)ccc2C1` [Embodiment 108, 1-(2-(((7-Methoxy-3-(5-methylisoxazol-3-yl)-[1,2,4]triazolo[4,3-b]pyridazin-6-yl)oxy)methyl)-7,8-dihydro-1,6-naphthyridin-6(5H)-yl)prop-2-en-1-one] was 54.9%; that for `CCOC(=O)N1CCc2nc(COc3nn4c(-c5cc(C)on5)nnc4cc3OC)ccc2C1` [Embodiment 111, Ethyl 2-(((7-methoxy-3-(5-methylisoxazol-3-yl)-[1,2,4]triazolo[4,3-b]pyridazin-6-yl)oxy)methyl)7,8-dihydro-1,6-naphthyridine-6(5H)-carboxylate] was 59.6%. On to `COc1cc2nnc(-c3cc(C)on3)n2nc1OCc1ccc(C2CCNCC2)cn1` [Embodiment 116], for which the inhibition at 0.1 µM came out at 44.9%. For the compound `COc1cc2nnc(-c3cc(C)on3)n2nc1OCc1cccc2ccnn12` [Embodiment 117], the inhibition at 0.1 µM stood at 32.3%.

`COc1cc2nnc(-c3cc(C)on3)n2nc1OCc1ccc2c(ncn2C)n1` [Embodiment 118]: the inhibition at 0.1 µM stood at 63.7%. With `COc1cc2nnc(-c3cc(C)on3)n2nc1OCc1ccc2c(n1)NCCO2` [Embodiment 119], the inhibition at 0.1 µM was 35.9%. In the case of `COc1cc2nnc(-c3cc(C)on3)n2nc1OCc1ccc2c(n1)CNCC2` [Embodiment 120], the inhibition at 0.1 µM amounted to 42.6%.

In the case of `COc1cc2nnc(-c3cc(C)on3)n2nc1OCc1cc2c(cn1)OCCO2` [Embodiment 121], the inhibition at 0.1 µM was 37.4%.

In the case of `COc1cc2nnc(-c3cc(C)on3)n2nc1OCc1cccc(C2CCNC2)n1` (stereo not shown) [Embodiment 123], the inhibition at 0.1 µM stood at 36.7%. The value for `COc1cc2nnc(-c3cc(C)on3)n2nc1OCc1cccc(C2(F)CCNC2)n1` (stereo not shown) [Embodiment 125] was 41.8%; that for `COc1cc2nnc(-c3cc(C)on3)n2nc1OCc1ccc2c(n1)CCN(C(=O)c1ccccc1)C2` [Embodiment 131] was 52.2%.

In the case of `COCCOc1ccc(COc2nn3c(-c4noc(C)n4)nnc3cc2OC)nc1` [Embodiment 132], the inhibition at 0.1 µM was 57.3%. The figure for `COc1cc2nnc(-c3cc(C)on3)n2nc1OCc1ccc(OCCN2CCC2)cn1` [Embodiment 133] is 36.9%; for `CCN1CC(Oc2ccc(COc3nn4c(-c5cc(C)on5)nnc4cc3OC)nc2)C1` [Embodiment 134] it is 30.4%. The figure for `COc1ccc2nc(COc3nn4c(-c5cc(C)on5)nnc4cc3OC)ccc2c1` [Embodiment 136] is 37.3%.

For `COc1cc2nnc(-c3cc(C)on3)n2nc1OCc1ccc(-c2nc(C)no2)cn1` [Embodiment 137, 5-(6-(((7-Methoxy-3-(5-methylisoxazol-3-yl)-[1,2,4]triazolo[4,3-b]pyridazin-6-yl)oxy)methyl)pyridin-3-yl)-3-methyl-1,2,4-oxadiazole], the inhibition at 0.1 µM turned out to be 47.2%. As to `COc1cc2nnc(-c3cc(C)on3)n2nc1OCc1ccc2ccccc2n1` [Embodiment 138], the inhibition at 0.1 µM came to 42.9%. The figure for `COCCCn1ccc2nc(COc3nn4c(-c5cc(C)on5)nnc4cc3OC)ccc2c1=O` [Embodiment 139] is 49%.
